Measurements taken from publication PMC6982718, “Comparative Study on Pharmacokinetics of Four Active Compounds in Rat Plasma after Oral Administration of Raw and Wine Processed Chuanxiong Rhizoma” (Molecules, 2019).

Legend:
[1] = format: in vitro ADME, rat; conditions: low QC (7.08/5.22/6.55/6.68 ng/mL), n = 6
Description: The quality control (QC) samples were prepared by the same procedure described above. Furthermore, low, medium, high concentrations of QC samples of each component were 7.08, 141.50, 1132 ng/mL for butylidenephthalide; 5.22, 104.40, 835.20 ng/mL for ligustilide; 6.55, 131, 1048 ng/mL for senkyunolide A and 6.68, 667.50, 10,680 ng/mL for ferulic acid, respectively.
The stability study of biological samples containing short-term, long-term, freeze-thaw and post-preparation stability could evaluate the influence of sample handling environment and sample storage environment on active component content. Six replicates of QC samples at three concentration levels were analyzed for all stability studies. Short-term stability was evaluated by keeping all QC samples at room temperature for 4 h before processing. Long-term stability was evaluated after all QC samples were stored at −20 °C for 60 days. Freeze-thaw stability of QC samples of each concentration was evaluated after three freeze (−20 °C)-thaw (room temperature) cycles. Post-preparation stability was to observe the stability of the extracted QC samples after waiting for 24 h in the autosampler at 4 °C. The concentration of each QC sample was calculated by the standard curve prepared freshly on the same day. The samples were considered stable when RSD of QC samples at three concentration levels was within ±15%.

[2] = Pharmacokinetic study in rat plasma after oral administration of RCR and WCR oral liquid medicine; format: in vivo, Sprague-Dawley rats; conditions: n = 6, mean ± SD; for AUC(0-inf) / AUC(0-t) / Cmax / MRT / Tmax / half-life: male, Sprague-Dawley, rat, plasma, po, 24.01 g/kg
Description: RCR (300 g) and WCR (300 g) were weighed and soaked in water (6:1, v/w) for 20 min respectively, then refluxed for 30 min and extracted twice. Finally, the extracts of RCR and WCR were filtered, combined, and concentrated to 1.20 g/mL respectively. The concentrated extracts were stored in a refrigerator at 4 °C before use.
Male adult Sprague-Dawley rats (220–250 g) were obtained from the Laboratory Animal Center of Shanxi Medical University (Shanxi, China). The rats were fed in an air-conditioned animal center with a natural light-dark cycle for a week, the temperature was maintained at 22–26 °C and the relative humidity was maintained at 60 ± 10%. All procedures involving the animal were in accordance with the Regulations of Experimental Animal Administration issued by the State Committee of Science and Technology of People’s Republic of China. It is worth noting that all rats were fasted with free access to water for 12 h prior to the experiment.
The collected plasma samples (100 µL) spiked with IS (10 µL) and methanol (10 µL) were vortex-mixed for 5 min. Subsequently, methanol of 300 µL was added for protein precipitation. The mixtures were vortexed for 5 min and then centrifuged at 13,000 rpm for 20 min. Finally, the supernatant was transferred to another clean centrifuge tube and centrifuged again in the same manner. The supernatant of 5 µL was injected into the UHPLC-Q-Exactive-Orbitrap/MS system for analysis.
Twelve rats were randomly divided into two groups (n = 6 per group), an orally administered liquid medicine of RCR and WCR respectively at the same dose of 24.01 g/kg. The blood samples (0.3 mL) from the suborbital vein of each rat were collected in a 1.5 mL heparinized centrifuge tube before dosing and at 0.033, 0.083, 0.16, 0.25, 0.5, 1, 2, 4, 8, 11, 24, 48 h after administration. The blood samples were immediately centrifuged at 13,000 rpm for 10 min and the plasma separated out were transferred to clean centrifuge tubes and stored at −20 °C until analysis.
The pharmacokinetic parameters of the analytes were evaluated using Phoenix WinNonlin software (version 6.0, Pharsight Corporation, CA, USA). The mean plasma concentration-time curves were presented using Graphpad Prism (version 6.0, Graghpad Software, San Diego, CA, USA).

AUC(0-inf) ([2]; oral RCR 24.01 g/kg) [ng·h/mL] | AUC(0-t) ([2]; oral RCR 24.01 g/kg) [ng·h/mL] | Cmax ([2]; oral RCR 24.01 g/kg) [ng/mL] | MRT ([2]; oral RCR 24.01 g/kg) [h] | Tmax ([2]; oral RCR 24.01 g/kg) [h] | half-life ([2]; oral RCR 24.01 g/kg) [h] | AUC(0-inf) ([2]; oral WCR 24.01 g/kg) [ng·h/mL] | AUC(0-t) ([2]; oral WCR 24.01 g/kg) [ng·h/mL] | Cmax ([2]; oral WCR 24.01 g/kg) [ng/mL] | MRT ([2]; oral WCR 24.01 g/kg) [h] | Tmax ([2]; oral WCR 24.01 g/kg) [h] | half-life ([2]; oral WCR 24.01 g/kg) [h] | Cl ([2]; oral RCR 24.01 g/kg) [mL/h] | Vd ([2]; oral RCR 24.01 g/kg) [mL] | Cl ([2]; oral WCR 24.01 g/kg) [mL/h] | Vd ([2]; oral WCR 24.01 g/kg) | Compound | other results
4110 ± 285 | 4080 ± 201 | 289 ± 8.1 | 13.5 ± 1.74 | 0.22 ± 0.05 | 8.5 ± 1.41 | 4040 ± 1480 | 3310 ± 579 | 192 ± 8.48 | 21.9 ± 11.2 | 0.3 ± 0.18 | 14.6 ± 7.56 | 128.76 ± 19.21 | 1579.29 ± 363.96 | 568.93 ± 184.86 | 10,580.62 ± 2206.75 mL | CCC/C=C1\OC(=O)C2=C1CCC=C2 [Ligustilide, ligustilide] | –
13400 | 13100 | 47700 | 3.21 ± 1.66 | 0.12 ± 0.09 | – | 4620 ± 1290 | 4460 ± 1240 | 9530 ± 6500 | 4.05 ± 1.07 | 0.06 ± 0.03 | – | 24.08 ± 14.39 | 283.95 ± 234.10 | 178.84 ± 54.46 | 1519.30 ± 1321.97 mL | COc1cc(/C=C/C(=O)O)ccc1O [Ferulic Acid, ferulic acid] | t1/2 ([2]; oral RCR 24.01 g/kg): 8.57 ± 4.42 h; t1/2 ([2]; oral WCR 24.01 g/kg): 5.33 ± 2.97 h
1840 ± 501 | 1640 ± 438 | 653 ± 581 | 18.8 ± 4.24 | 0.11 ± 0.09 | 13.4 ± 3.56 | 861 ± 267 | 804 ± 279 | 151 ± 84.3 | 9.86 ± 1.53 | 0.18 ± 0.07 | 6.32 ± 1.72 | 392.87 ± 142.41 | 7378.16 ± 2565.01 | – | 8275.68 ± 5216.70 mL | CCCCC1OC(=O)C2=C1CCC=C2 (stereo not shown) [Senkyunolide A, senkyunolide A] | –

Compound | AUC(0-inf) ([2]; oral RCR 24.01 g/kg) [ng·h/mL] | AUC(0-t) ([2]; oral RCR 24.01 g/kg) [ng·h/mL] | Cmax ([2]; oral RCR 24.01 g/kg) [ng/mL] | MRT ([2]; oral RCR 24.01 g/kg) [h] | Tmax ([2]; oral RCR 24.01 g/kg) [h] | half-life ([2]; oral RCR 24.01 g/kg) [h] | AUC(0-inf) ([2]; oral WCR 24.01 g/kg) [ng·h/mL] | AUC(0-t) ([2]; oral WCR 24.01 g/kg) [ng·h/mL] | Cmax ([2]; oral WCR 24.01 g/kg) [ng/mL] | MRT ([2]; oral WCR 24.01 g/kg) [h] | Tmax ([2]; oral WCR 24.01 g/kg) [h] | half-life ([2]; oral WCR 24.01 g/kg) [h] | Cl ([2]; oral RCR 24.01 g/kg) [mL/h] | Vd ([2]; oral RCR 24.01 g/kg) [mL] | Cl ([2]; oral WCR 24.01 g/kg) [mL/h] | Vd ([2]; oral WCR 24.01 g/kg) | other results
CCC/C=C1\OC(=O)c2ccccc21 [Butylidenephthalide, butylidenephthalide] | 782 ± 252 | 743 ± 279 | 288 ± 370 | 14.1 ± 6.54 | 0.25 ± 0.14 | 11.4 ± 5.88 | 402 ± 77.1 | 384 ± 90.9 | 52.1 ± 16.6 | 13.9 ± 3.63 | 0.27 ± 0.14 | 11 ± 3.75 | 36.61 ± 16.33 | 633.78 ± 424.90 | 234.35 ± 44.10 | 3802.37 ± 1676.69 mL | Post-Preparative Stability RE ([1]; extracted rat plasma, 24 h in autosampler at 4 °C): 6.90%; Bench-Top Stability RE ([1]; rat plasma, room temperature 4 h): 1.88%; Freeze-Thaw Stability RE ([1]; rat plasma, three freeze (−20 °C)-thaw cycles): −10.99%; Long-Term Stability RE ([1]; rat plasma, −20 °C for 60 days): 4.03%
